Active and inactive are the calls of the source.
Legend:
Format in all cases: functional, organism-based
Candida albicans = assay: Antifungal activity against Candida albicans DSM 1665 assessed as inhibition of fungal growth incubated for overnight by serial dilution assay
Mucor hiemalis = assay: Antifungal activity against Mucor hiemalis DSM 2656 assessed as inhibition of fungal growth incubated for overnight by serial dilution assay
Rhodotorula glutinis = assay: Antifungal activity against Rhodotorula glutinis DSM 10134 assessed as inhibition of fungal growth incubated for overnight by serial dilution assay
[1] = tested on: Schizosaccharomyces pombe; assay: Antifungal activity against Schizosaccharomyces pombe DSM 70572 assessed as inhibition of fungal growth incubated for overnight by serial dilution assay
Wickerhamomyces anomalus = assay: Antifungal activity against Pichia anomala DSM 6766 assessed as inhibition of fungal growth incubated for overnight by serial dilution assay
Escherichia coli = assay: Antibacterial activity against Escherichia coli DSM 1116 assessed as inhibition of bacterial growth incubated for overnight by serial dilution assay
[2] = tested on: Mycolicibacterium smegmatis; assay: Antibacterial activity against Mycobacterium smegmatis ATCC 700084 assessed as inhibition of bacterial growth incubated for overnight by serial dilution assay
Pseudomonas aeruginosa = assay: Antibacterial activity against Pseudomonas aeruginosa DSM PA14 assessed as inhibition of bacterial growth incubated for overnight by serial dilution assay
[3] = tested on: Chromobacterium violaceum; assay: Antibacterial activity against Chromobacterium violaceum DSM 30191 assessed as inhibition of bacterial growth incubated for overnight by serial dilution assay
Acinetobacter baumannii = assay: Antibacterial activity against Acinetobacter baumannii […] DSM 30008 assessed as inhibition of bacterial growth incubated for overnight by serial dilution assay
Bacillus subtilis = assay: Antibacterial activity against Bacillus subtilis DSM 10 assessed as inhibition of bacterial growth incubated for overnight by serial dilution assay
Staphylococcus aureus = assay: Antibacterial activity against Staphylococcus aureus DSM 346 assessed as inhibition of bacterial growth incubated for overnight by serial dilution assay

Measured: Activity

Cc1c(O)c(O)c(C(C)C)c2c1CCC(C(=O)O)=C2
inactive: Candida albicans | Mucor hiemalis | Rhodotorula glutinis | [1] | Wickerhamomyces anomalus | Escherichia coli | [2] | Pseudomonas aeruginosa | [3] | Acinetobacter baumannii | Bacillus subtilis | Staphylococcus aureus

CC(C)[C@H]1CC[C@H](C)c2c(O)c(O)c(C=O)c(C3=C(O)C(=O)C4=C(OCc5c(O)c(O)c6c(c54)[C@@H](C(C)C)CC[C@@H]6C)C3=O)c21
inactive: Candida albicans | Mucor hiemalis | Rhodotorula glutinis | [1] | Wickerhamomyces anomalus | Escherichia coli | [2] | Pseudomonas aeruginosa | [3] | Acinetobacter baumannii | Bacillus subtilis | Staphylococcus aureus

CC1=C(O)C(=O)C(c2c(C=O)c(O)c(O)c3c2[C@@H](C(C)C)CC[C@@H]3C)=C(O)C1=O
inactive: Candida albicans | Mucor hiemalis | Rhodotorula glutinis | [1] | Wickerhamomyces anomalus | Escherichia coli | [2] | Pseudomonas aeruginosa | [3] | Acinetobacter baumannii | Bacillus subtilis | Staphylococcus aureus

CC(C)[C@H]1CC[C@H](C)c2c(O)c(O)c(CO)c(C3=C(O)C(=O)C4=C(OCc5c(O)c(O)c6c(c54)[C@@H](C(C)C)CC[C@@H]6C)C3=O)c21
inactive: Candida albicans | Mucor hiemalis | Rhodotorula glutinis | [1] | Wickerhamomyces anomalus | Escherichia coli | [2] | Pseudomonas aeruginosa | [3] | Acinetobacter baumannii | Bacillus subtilis | Staphylococcus aureus

O=c1cc(O)cc(C2c3c(cc(/C=C/c4ccc(O)c(O)c4)oc3=O)OC2c2ccc(O)c(O)c2)o1 (stereo not given)
inactive: Candida albicans | Mucor hiemalis | Rhodotorula glutinis | [1] | Wickerhamomyces anomalus | Escherichia coli | [2] | Pseudomonas aeruginosa | [3] | Acinetobacter baumannii | Bacillus subtilis | Staphylococcus aureus

CC(C)[C@H]1CC[C@H](C)c2c(O)c(O)c(C=O)c(C3=C(O)C(=O)C(c4c(C=O)c(O)c(O)c5c4[C@@H](C(C)C)CC[C@@H]5C)=C(O)C3=O)c21
inactive: Candida albicans | Mucor hiemalis | Rhodotorula glutinis | [1] | Wickerhamomyces anomalus | Escherichia coli | [2] | Pseudomonas aeruginosa | [3] | Acinetobacter baumannii | Bacillus subtilis | Staphylococcus aureus

CC(C)[C@H]1CC[C@H](C)c2c(O)c(O)c(C=O)c(C3=C(O)C(=O)C=C(O)C3=O)c21
inactive: Candida albicans | Mucor hiemalis | Rhodotorula glutinis | [1] | Wickerhamomyces anomalus | Escherichia coli | [2] | Pseudomonas aeruginosa | [3] | Acinetobacter baumannii | Bacillus subtilis | Staphylococcus aureus

CC(C)[C@H]1CC[C@H](C)C2=C1C=C(C(=O)O)CC2
inactive: Candida albicans | Mucor hiemalis | Rhodotorula glutinis | [1] | Wickerhamomyces anomalus | Escherichia coli | [2] | Pseudomonas aeruginosa | [3] | Acinetobacter baumannii | Bacillus subtilis | Staphylococcus aureus

O=c1cc(O)cc(/C=C/c2ccc(O)c(O)c2)o1
inactive: Candida albicans | Mucor hiemalis | Rhodotorula glutinis | [1] | Wickerhamomyces anomalus | Escherichia coli | [2] | Pseudomonas aeruginosa | [3] | Acinetobacter baumannii | Bacillus subtilis | Staphylococcus aureus

CC(C)[C@H]1CC[C@H](C)c2c(O)c(O)c3c(c21)C1=C(OC3)C(=O)C2=C(OCc3c(O)c(O)c4c(c32)[C@@H](C(C)C)CC[C@@H]4C)C1=O
inactive: Candida albicans | Mucor hiemalis | Rhodotorula glutinis | [1] | Wickerhamomyces anomalus | Escherichia coli | [2] | Pseudomonas aeruginosa | [3] | Acinetobacter baumannii | Bacillus subtilis | Staphylococcus aureus

— ChEMBL document CHEMBL5233291, “Calamene-Type Sesqui-, Mero-, and Bis-sesquiterpenoids from Cultures of Heimiomyces sp., a Basidiomycete Collected in Africa” (J Nat Prod, 2023)
